Literature values as cited in US20210369737A1, “PROSTATE FUNCTION SUPPORT FORMULA” (Innovus Pharmaceuticals, Inc., priority 2017, published 2021).

Experiments:
androgen receptor = biological target: T1, androgen receptor (Homo sapiens, UniProt P10275); details: in vitro
T1 sequence (P10275 1-920): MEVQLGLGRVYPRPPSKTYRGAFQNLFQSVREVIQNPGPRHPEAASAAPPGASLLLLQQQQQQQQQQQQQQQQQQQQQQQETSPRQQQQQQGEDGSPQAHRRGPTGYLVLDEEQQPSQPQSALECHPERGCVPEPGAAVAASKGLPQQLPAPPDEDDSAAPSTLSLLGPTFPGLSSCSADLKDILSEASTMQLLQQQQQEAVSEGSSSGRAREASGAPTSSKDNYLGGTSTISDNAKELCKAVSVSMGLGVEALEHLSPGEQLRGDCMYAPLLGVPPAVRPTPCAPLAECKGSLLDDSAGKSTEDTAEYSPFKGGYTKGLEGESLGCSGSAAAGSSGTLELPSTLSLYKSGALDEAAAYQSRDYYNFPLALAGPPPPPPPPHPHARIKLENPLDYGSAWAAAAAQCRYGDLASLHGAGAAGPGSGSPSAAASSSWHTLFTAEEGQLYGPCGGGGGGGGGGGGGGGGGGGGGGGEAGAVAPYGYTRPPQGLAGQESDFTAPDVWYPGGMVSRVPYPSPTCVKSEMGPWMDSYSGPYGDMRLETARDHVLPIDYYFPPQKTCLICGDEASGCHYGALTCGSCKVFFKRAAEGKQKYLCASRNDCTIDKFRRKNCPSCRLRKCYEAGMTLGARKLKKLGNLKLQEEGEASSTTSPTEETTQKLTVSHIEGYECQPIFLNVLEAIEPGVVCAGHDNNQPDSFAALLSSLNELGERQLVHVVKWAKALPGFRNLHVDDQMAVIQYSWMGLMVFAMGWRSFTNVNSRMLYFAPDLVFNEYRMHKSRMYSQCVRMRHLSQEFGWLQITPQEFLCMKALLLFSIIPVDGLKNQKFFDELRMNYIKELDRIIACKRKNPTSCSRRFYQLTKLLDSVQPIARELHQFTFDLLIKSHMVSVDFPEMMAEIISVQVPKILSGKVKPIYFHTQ

prostate cancer = details: in vitro and in vivo
[1] = in vivo
PSA = details: clinical trials
prostate cancer cells [2] = tested on: prostate cancer cells
[3] = tested on: prostate cancer and BPH cells; details: in vitro
prostate tumors = details: TRAMP mice
prostate cancer cell = details: in vitro
[4] = tested on: human prostate tumor in vivo xenografts
prostate cancer cells [5] = details: in vitro

Q: Which “levels of p53” value (androgen receptor) does the source give for `[Se]` [Selenium] here?
A: increase levels of p53

Q: What about the “activity of the androgen receptor” value (androgen receptor; prostate cancer cells) of the same compound?
A: decrease the activity of the androgen receptor

Q: And the “prostate cancer risk, tumor progression, apoptosis” value (prostate cancer)?
A: reduce risk of prostate cancer, suppress tumor progression and cell apoptosis

Q: Which “levels of DHT” value (BPH; clinical) does the source give for `CC[C@H](CC[C@@H](C)[C@H]1CC[C@H]2[C@@H]3CC=C4C[C@@H](O)CC[C@]4(C)[C@H]3CC[C@]12C)C(C)C` [Beta-sitosterols, Beta-Sitosterol] here?
A: decrease levels of DHT

Q: What about the urinary flow (BPH; clinical) of the same compound?
A: significantly improve urinary flow

Q: And the “maintenance of improvements in follow-up” value (BPH; follow-up study, observation)?
A: 18 months

Q: What about the symptom scores (BPH; versus placebo, after three and six months of treatment) of the same compound?
A: significant decrease in symptom scores

Q: With `CC(C)=CCC/C(C)=C/C=C/C(C)=C/C=C/C(C)=C/C=C/C=C(C)/C=C/C=C(C)/C=C/C=C(\C)CCC=C(C)C` [Lycopene] as the compound, how does the safety status [1] read?
A: generally recognized as safe (GRAS)

Q: And the PSA levels (PSA)?
A: reduction of PSA levels

Q: And the antitumorigenic effect (prostate cancer cells [2]; animal studies)?
A: antitumorigenic effect

Q: And the “antioxidant response, proliferation, apoptosis, metastatic capacity of prostate cells” value (prostate cancer cells [2]; in vitro and in vivo)?
A: enhance the antioxidant response of prostate cells, inhibit proliferation, demonstrate chemopreventive effect induce apoptosis and decrease the metastatic capacity of prostate cancer cells

Q: With `[Zn]` [Zinc] as the compound, how does the “apoptosis and antiproliferative effects” value [3] read?
A: induces apoptosis and antiproliferative effects

Q: For `O=C(O[C@@H]1Cc2c(O)cc(O)cc2O[C@@H]1c1cc(O)c(O)c(O)c1)c1cc(O)c(O)c(O)c1` [EGCG], which “tumor size and development of prostate tumors” value (prostate tumors) is on record?
A: reduces tumor size and delays development of prostate tumors

Q: What about the androgen antagonism (prostate cancer cell) of the same compound?
A: acts as an anti-androgen antagonist

Q: What about the “prostate cancer cell proliferation and PSA production” value (prostate cancer cell) of the same compound?
A: suppresses prostate cancer cell proliferation and production of prostate-specific antigen (PSA)

Q: With Vitamin E as the compound, how does the “prostate cancer risk, tumor progression, apoptosis” value (prostate cancer) read?
A: reduce risk of prostate cancer, suppress tumor progression and cell apoptosis

Q: Which results are given for `O=c1c(O)c(-c2ccc(O)c(O)c2)oc2cc(O)cc(O)c12` [Quercetin, 2-(3,4-dihydroxyphenyl)-3,5,7-trihydroxy-4H-chromen-4-one]?
A: prostate weight and anti-tumor activity ([4]; in vivo, in combination with finasteride): effective in vivo in combination with finasteride to reduce prostate weight and anti-tumor activity; effect on human prostate tumor xenografts ([4]; mice): has an effect on human prostate tumor in vivo xenografts; apoptosis and caspase activation (prostate cancer cells [5]): promoted prostate cancer cells apoptosis and caspase activation; prostate cancer cell proliferation (prostate cancer cells [5]): inhibits prostate cancer cell proliferation; symptoms in CP/CPPS (CP/CPPS; clinical): symptomatic improvement; IPSS (CP/CPPS; randomized, double-blind, placebo controlled clinical trial): decrease in IPSS
